Test results as given in US7176224B2, “Oxazolyl-aryloxyacetic acid derivatives and their use as PPAR agonists” (Eli Lilly and Company, priority 2000, dated 2007).

Key:
[1] = tested on: Hu apoAI transgenic mice; assay: Evaluation of triglyceride and cholesterol levels in hu apoAI transgenic mice; format: in vivo
Protocol: Five to six week old male mice, transgenic for human apoAI [C57B1/6-tgn(apoa1) 1rub, Jackson Laboratory, Bar Harbor, Me.] were housed five per cage (10″×20″8″ with aspen chip bedding) with food (Purina 5001) and water available at all times. After an acclimation period of 2 weeks, animals were individually identified by ear notches, weighed, and assigned to groups based on body weight. Beginning the following morning, mice were dosed daily by oral gavage for 7 days using a 20 gauge, 1½″ curved disposable feeding needle (Popper & Sons). Treatments were test compounds (30 mg/kg), a positive control (fenofibrate, 100 mg/kg) or vehicle [1% carboxymethylcellulose (w/v)/0.25% Tween80 (w/v); 0.2 ml/mouse]. Prior to termination on day 7, mice were weighed and dosed. Three hours after dosing, animals were anesthetized by inhalation of isoflurane (2–4%; Abbott Laboratories, Chicago, Ill.) and blood obtained via cardiac puncture (0.7–1.0 ml). Whole blood was transferred to serum separator tubes (Vacutainer SST), chilled on ice, and permitted to clot. Serum was obtained after centrifugation at 4° C. and frozen until analysis for triglycerides, total cholesterol, compound levels, and serum lipoprotein profile by fast protein liquid chromatography (FPLC) coupled to an inline detection system. After sacrifice by cervical dislocation, the liver, heart and epididymal fat pads were excised and weighed.
The animals dosed with vehicle had average triglycerides values of 60–80 mg/dl, which were reduced by the positive control fenofibrate (33–58 mg/dl with a mean reduction of 37%). The animals dosed with vehicle had average total serum cholesterol values of 140–180 mg/dl, which were increased by fenofibrate (190–280 mg/dl, with a mean elevation of 41%). […] increased the amount of HDLc (68–96 v-sec with a mean percent increase of 48%).
Glucose was measured colorimetrically using commercially purchased reagents (Sigma #315-500). According to the manufacturers, the procedures were modified from published work (McGowan, M. W., Artiss, J. D., Strandbergh, D. R. & Zak, B. Clin Chem, 20:470–5 (1974) and Keston, A. Specific colorimetric enzymatic analytical reagents for glucose. Abstract of papers 129th Meeting ACS, 31C (1956).); and depend on the release of a mole of hydrogen peroxide for each mole of analyte, coupled with a color reaction first described by Trinder (Trinder, P. Determination of glucose in blood using glucose oxidase with an alternative oxygen acceptor. Ann Clin Biochem, 6:24 (1969)). The absorbance of the dye produced is linearly related to the analyte in the sample. The assays were further modified in our laboratory for use in a 96 well format. Standards (Sigma #339-11, Sigma #16-11, and Sigma #CC0534 for glucose, triglycerides and total cholesterol, respectively), quality control plasma (Sigma # A2034), and samples (2 or 5 μl/well) were measured in duplicate using 200 μl of reagent. An additional aliquot of sample, pipetted to a third well and diluted in 200 μl water, provided a blank for each specimen. Plates were incubated at room temperature (18, 15, and 10 minutes for glucose, triglycerides and total cholesterol, respectively) on a plate shaker (DPC Micormix 5) and absorbance read at 500 nm (glucose and total cholesterol) or 540 nm (triglycerides) on a plate reader (Wallac Victor 1420). Sample absorbances were compared to a standard curve (100–800, 10–500, and 100–400 mg/dl for glucose, triglycerides and total cholesterol, respectively). Values for the quality control sample were always within the expected range and the coefficient of variation for samples was below 10%. All samples from an experiment were assayed at the same time to minimize inter-assay variability.
Serum lipoproteins were separated and cholesterol quantitated with an in-line detection system. Sample was applied to a Superose® 6 HR 10/30 size exclusion column (Amersham Pharmacia Biotech) and eluted with phosphate buffered saline-EDTA at 0.5 ml/min. […]

[2] = tested on: huPPARα; assay: Cotransfection assay in CV-1 cells, luciferase reporter; format: cell-based, human; conditions: GAL4 chimeric system, relative to PPARα agonist reference molecule
Protocol: (§1) […] binding (ABCD binding) was carried out using SPA technology with PPAR receptors. Tritium-labeled PPARα and PPARγ agonists were used as radioligands for generating displacement curves and IC50 values with compounds of the invention. Cotransfection assays were carried out in CV-1 cells. The reporter plasmid contained an acylCoA oxidase (AOX) PPRE and TK promoter upstream of the luciferase reporter cDNA. Appropriate PPARs and RXRα were constitutively expressed using plasmids containing the CMV promoter. For PPARα and PPARγ, interference by endogenous PPARγ in CV-1 cells was an issue. In order to eliminate such interference, a GAL4 chimeric system was used in which the DNA binding domain of the transfected PPAR was replaced by that of GAL4, and the GAL4 response element was utilized in place of the AOX PPRE. Cotransfection efficacy was determined relative to PPARα agonist and PPARβ agonist reference molecules. Efficacies were determined by computer fit to a concentration-response curve, or in some cases at a single high concentration of agonist (10 μM). For binding or cotransfection studies with receptors other than PPARs, similar assays were carried out using appropriate ligands, receptors, reporter constructs, etc., for that particular receptor.
(§2) These studies were carried out to evaluate the ability of compounds of the invention to bind to and/or activate various nuclear transcription factors, particularly huPPARα (“hu” indicates “human”) and huPPARγ. These studies provide in vitro data concerning efficacy and selectivity of compounds of the invention. Furthermore, binding and cotransfection data for compounds of the invention were compared with corresponding data for marketed compounds that act on either huPPARα or huPPARγ.

[3] = tested on: huPPARγ; assay: as above; format: cell-based, human; conditions: GAL4 chimeric system, relative to agonist reference molecule
Protocol: as §1, with “Tritium-labeled PPARα and PPARγ agonists were used as radioligands for generating displacement curves and IC50 values with compounds of the invention.” left out, “For PPARα and PPARγ, interference by endogenous PPARγ in CV-1 cells was an issue.” left out, “Cotransfection efficacy was determined relative to PPARα agonist and PPARβ agonist reference molecules.” left out
as §2

[4] = biological target: T1, huPPARα (Homo sapiens, UniProt Q07869); assay: DNA-dependent binding (ABCD binding), SPA, radioligand displacement; conditions: tritium-labeled PPARα agonist radioligand
T1 sequence (Q07869 1-468): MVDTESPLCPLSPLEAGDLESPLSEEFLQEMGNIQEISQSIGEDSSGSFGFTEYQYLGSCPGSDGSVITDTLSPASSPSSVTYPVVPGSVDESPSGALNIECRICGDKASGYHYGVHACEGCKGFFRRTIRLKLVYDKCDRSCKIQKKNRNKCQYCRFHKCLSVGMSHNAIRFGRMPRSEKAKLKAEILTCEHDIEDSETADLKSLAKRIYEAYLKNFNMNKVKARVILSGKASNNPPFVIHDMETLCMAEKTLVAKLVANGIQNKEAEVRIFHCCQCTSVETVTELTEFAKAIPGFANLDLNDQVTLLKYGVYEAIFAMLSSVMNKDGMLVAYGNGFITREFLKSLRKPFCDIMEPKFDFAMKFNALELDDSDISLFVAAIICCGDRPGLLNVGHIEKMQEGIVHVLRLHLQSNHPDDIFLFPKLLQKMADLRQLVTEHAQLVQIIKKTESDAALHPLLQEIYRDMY
T1 sequence (P19793 1-462 partner): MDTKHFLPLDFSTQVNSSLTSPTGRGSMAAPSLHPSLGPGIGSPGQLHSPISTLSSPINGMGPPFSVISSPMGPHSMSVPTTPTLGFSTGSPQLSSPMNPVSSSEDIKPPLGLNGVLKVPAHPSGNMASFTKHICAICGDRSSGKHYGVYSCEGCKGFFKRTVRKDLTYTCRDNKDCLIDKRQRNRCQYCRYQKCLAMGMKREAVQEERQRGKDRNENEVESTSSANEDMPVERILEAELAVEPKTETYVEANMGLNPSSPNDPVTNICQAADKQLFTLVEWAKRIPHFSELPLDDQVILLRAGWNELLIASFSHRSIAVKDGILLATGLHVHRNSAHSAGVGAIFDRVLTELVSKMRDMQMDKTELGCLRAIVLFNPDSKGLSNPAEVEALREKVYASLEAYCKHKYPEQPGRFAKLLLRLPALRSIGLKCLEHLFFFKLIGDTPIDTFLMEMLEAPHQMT
Protocol: as §1, with “For PPARα and PPARγ, interference by endogenous PPARγ in CV-1 cells was an issue.” left out
as §2

[5] = biological target: T2, huPPARγ (Homo sapiens, UniProt P37231); assay: as above; conditions: tritium-labeled PPARγ agonist radioligand
T2 sequence (P37231 1-505): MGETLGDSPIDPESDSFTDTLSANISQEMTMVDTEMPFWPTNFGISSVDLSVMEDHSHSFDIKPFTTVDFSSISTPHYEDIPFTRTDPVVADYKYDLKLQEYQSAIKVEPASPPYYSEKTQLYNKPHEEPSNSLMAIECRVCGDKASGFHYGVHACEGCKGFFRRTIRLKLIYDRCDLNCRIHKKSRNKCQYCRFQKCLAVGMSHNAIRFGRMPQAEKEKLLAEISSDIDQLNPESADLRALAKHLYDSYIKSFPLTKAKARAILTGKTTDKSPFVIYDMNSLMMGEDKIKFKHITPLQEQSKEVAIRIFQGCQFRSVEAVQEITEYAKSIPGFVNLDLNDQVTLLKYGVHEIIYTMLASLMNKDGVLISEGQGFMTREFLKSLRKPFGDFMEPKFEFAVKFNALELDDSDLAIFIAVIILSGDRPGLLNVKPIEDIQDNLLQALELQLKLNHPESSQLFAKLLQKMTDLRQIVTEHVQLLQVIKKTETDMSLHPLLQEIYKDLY
T2 sequence (P19793 1-462 partner): T1 sequence (P19793 1-462 partner)
Protocol: as §1, with “For PPARα and PPARγ, interference by endogenous PPARγ in CV-1 cells was an issue.” left out
as §2

[6] = 100 mg/kg oral gavage daily for 7 days, versus vehicle

With `Cc1oc(-c2cccc(-c3ccsc3)c2)nc1CCOc1ccc(CC(C)(Oc2ccc(C(C)(C)C)cc2)C(=O)O)cc1` (centres unmarked) [Example 19, 2-Methyl-3-(4-{2-[5-methyl-2-(3-thiophen-3-yl-phenyl)-oxazol-4-yl]-ethoxy}-phenyl)-2-(4-tert-butylphenoxy)-propionic acid] the “% HDLc Increase” value ([1]; 30 mg/kg oral gavage daily for 7 days, serum HDLc FPLC area under the curve, over mice receiving vehicle) was 85.3%.
For `Cc1oc(-c2cccc(-c3ccccc3)c2)nc1CCOc1ccc(CC(C)(Oc2ccc3c(c2)OCO3)C(=O)O)cc1` (centres unmarked) [Example 58, 2-(Benzo[1,3]dioxol-5-yloxy)-3-{4-[2-(2-biphenyl-3-yl-5-methyl-oxazol-4-yl)-ethoxy]-phenyl}-2-methyl-propionic acid], the “huPPARα CTF Efficacy” value [2] was 48%, the “huPPARγ CTF Efficacy” value [3] was 101% and the IC50 [4] was 145 nM. For the same molecule, the IC50 [5] was 37 nM.
In the case of `CC(C)OC(=O)C(C)(C)Oc1ccc(C(=O)c2ccc(Cl)cc2)cc1` [fenofibrate], the “high density lipoprotein cholesterol (HDLc) peak area” value ([1]; 100 mg/kg oral gavage daily for 7 days, pooled sera, FPLC, vehicle 47 to 62 v-sec) is reported as 68–96 v-sec, the average triglycerides values ([1]; 100 mg/kg oral gavage daily for 7 days, serum, vehicle 60–80 mg/dl) is reported as 33 to 58 mg/dL and the “average total serum cholesterol values” ([1]; 100 mg/kg oral gavage daily for 7 days, vehicle 140–180 mg/dl) is reported as 190 to 280 mg/dL. The “mean elevation of total serum cholesterol” value [1, 6] was 41%, the “mean percent increase of HDLc” value [1, 6] was 48% and the “mean reduction of triglycerides” value [1, 6] was 37%.
